Experimental data as given in PMC9572521, “Synthesis, Docking Studies and Pharmacological Evaluation of Serotoninergic Ligands Containing a 5-Norbornene-2-Carboxamide Nucleus” (Molecules, 2022).
Entries after “also recorded” stand apart in the source; their conditions may differ.

What was measured:
5-HT1A receptor = target: T1, 5-HT1A receptor (Rattus norvegicus, UniProt P19327); test: Functional 5-HT1A receptor [35S]GTPγS assay (agonist mode); assay type: biochemical; conditions: [35S]GTPγS, rat hippocampus homogenate;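 further: male Sprague-Dawley rat hippocampal membranes incubated 90 min at 37 °C, bound label counted by scintillation after filtration, non-specific binding defined with 100 µM unlabeled GTPγS, one-site curve fit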
T1 construct: 15 μg/mL of hippocampus homogenate was incubated in triplicate with 0.8 nM; from tissue; host or cells: rat hippocampus homogenate
T1 sequence (P19327 1-422): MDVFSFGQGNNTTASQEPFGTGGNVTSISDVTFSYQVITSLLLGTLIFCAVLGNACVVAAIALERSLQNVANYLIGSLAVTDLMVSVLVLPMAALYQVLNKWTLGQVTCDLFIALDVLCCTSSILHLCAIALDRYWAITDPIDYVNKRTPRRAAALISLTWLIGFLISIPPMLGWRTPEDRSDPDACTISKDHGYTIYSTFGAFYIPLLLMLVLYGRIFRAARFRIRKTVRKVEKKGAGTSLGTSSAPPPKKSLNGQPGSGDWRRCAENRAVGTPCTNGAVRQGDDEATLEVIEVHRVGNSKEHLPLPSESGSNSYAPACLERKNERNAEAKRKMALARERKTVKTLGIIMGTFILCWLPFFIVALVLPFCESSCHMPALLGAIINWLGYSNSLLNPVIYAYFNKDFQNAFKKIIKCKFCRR

mice = test: Forced swim test (FST, Porsolt's test); assay type: in vivo, mouse; conditions: 60 min before the test
Method: The experiments were carried out, in the Experimental Medicine Center of Medical University of Lublin, on six-week-old naive male Swiss mice, weighing 24–30 g. The mice were housed in cages, five individuals per cage in an environmentally controlled rooms (ambient temperature 22 ± 1 °C; relative humidity 50–60%; 12 h light/dark cycle, lights on at 8:00). Standard laboratory food(LSM-Agropol-Motycz, Lublin, Poland) and filtered water were available ad libitum. All the experimental procedures were carried out, according to the National Institute of Health Guidelines for the Care and Use of Laboratory Animals and to the European Community Council Directive for the Care and Use of Laboratory Animals of 22 September 2010 (2010/63/EU) and approved by the Local Ethics Committee for Animal Experimentation in Lublin. The investigated compounds (Norbo-4, Norbo-8, Norbo-10, Norbo-14, Norbo-18 and Norbo-20) in all tests were administered intraperitoneally (i.p.), dissolved in dimethyl sulfoxide (DMSO, final concentration of 0.1%) and then diluted by aqueous solution of 0.5% methylcellulose (tylose) and injected 60 min before the tests. […] All compounds were given in a volume of 10 mL/kg to mice. The control animals received an equivalent volume of the solvent at the respective time before the tests. All the experiments were conducted in the light phase between 09.00 a.m. and 14.00 p.m. The experiments were performed by an observer unaware of the treatment administered. The experiment was carried out according to the method of Porsolt et al.. Mice were individually placed in a glass cylinder (25 cm high; 10 cm in diameter) containing water maintained at 23–25 °C, and were left there for 6 min. The total duration of immobility was recorded during the last 4 min of a 6-min test session. A mouse was regarded as immobile when it remained floating on the water, making only small movements to keep its head above the water.

## Cc1cccc(N2CCN(CCCNC(=O)C3CC4C=CC3C4)CC2)c1C (stereo not drawn) [Norbo-4, endo-N-(3-(4-(2,3-dimethylphenyl)piperazin-1-yl)propyl)bicyclo[2.2.1]hept-5-ene-2-carboxamide]
5-HT1A receptor
  5-HT1A Receptor G-Protein Stimulation Emax (%) ± SEM: 181 ± 2.4 %
5-HT1A receptor; read-out: 5-HT1A Receptor G-Protein Stimulation EC50 (95% CI)
  EC50: 181 nM
mice; 3.75 mg/kg i.p.
  immobility time in FST: significant reduction in immobility time; also recorded: significant reduction of immobility time
mice; 15 mg/kg i.p.
  immobility time in FST: significant reduction in immobility time; also recorded: significant reduction of immobility time
mice; 30 mg/kg i.p.
  immobility time in FST: significant reduction in immobility time
